Source: article PMC10924921, “Mi-2β promotes immune evasion in melanoma by activating EZH2 methylation” (Nature Communications, 2024)

Tests used:
Experiment in all cases: biochemical
Set-up in all cases: KINOMEscan active-site competition binding panel (468 kinase assays), per cent of control at 1000 nM
Conditions in all cases: KINOMEscan per cent of control (binding competition); read-out: Percent Control
EPHA2 = EPHA2 (Homo sapiens, UniProt P29317)
From the text: (§1) Figure S7 / Percent Control

TSSK3 = TSSK3 (Homo sapiens, UniProt Q96PN8)
From the text: as §1

PAK2 = PAK2 (Homo sapiens, UniProt Q13177)
From the text: as §1

MEK2 = molecular target: T1, MEK2 (Homo sapiens, UniProt P36507)
T1 construct: gene MAP2K2
From the text: as §1

PIK4CB = molecular target: T2, PIK4CB (Homo sapiens, UniProt Q9UBF8)
T2 construct: gene PI4KB
From the text: as §1

TRKB = molecular target: T3, TRKB (Homo sapiens, UniProt Q16620)
T3 construct: gene NTRK2
From the text: as §1

GCN2(Kin.Dom.2,S808G) = molecular target: T4, GCN2(Kin.Dom.2,S808G) (Homo sapiens, UniProt Q9P2K8, S808G)
T4 construct: gene EIF2AK4; Kin.Dom.2
From the text: as §1

FLT3(ITD,D835V) = FLT3(ITD,D835V) (Homo sapiens, UniProt P36888, D835V/ITD)
From the text: as §1

[1] = molecular target: T5, RSK2(Kin.Dom.2-C-terminal) (Homo sapiens, UniProt P51812)
T5 construct: gene RPS6KA3; Kin.Dom.2-C-terminal
From the text: as §1

[2] = molecular target: T6, JAK2(JH1domain-catalytic) (Homo sapiens, UniProt O60674)
T6 construct: JH1domain-catalytic
From the text: as §1

TGFBR1 = TGFBR1 (Homo sapiens, UniProt P36897)
From the text: as §1

NLK = NLK (Homo sapiens, UniProt Q9UBE8)
From the text: as §1

PIM1 = PIM1 (Homo sapiens, UniProt P11309)
From the text: as §1

MAP4K5 = MAP4K5 (Homo sapiens, UniProt Q9Y4K4)
From the text: as §1

CAMK1G = CAMK1G (Homo sapiens, UniProt Q96NX5)
From the text: as §1

[3] = molecular target: T7, RPS6KA5(Kin.Dom.1-N-terminal) (Homo sapiens, UniProt O75582)
T7 construct: Kin.Dom.1-N-terminal
From the text: as §1

DRAK1 = molecular target: T8, DRAK1 (Homo sapiens, UniProt Q9UEE5)
T8 construct: gene STK17A
From the text: as §1

LKB1 = molecular target: T9, LKB1 (Homo sapiens, UniProt Q15831)
T9 construct: gene STK11
From the text: as §1

[4] = molecular target: EGFR(L747-S752del, P753S) (Homo sapiens, UniProt P00533, DEL747-752/P753S)
From the text: as §1

[5] = molecular target: T10, ABL1(H396P)-phosphorylated (Homo sapiens, UniProt P00519, H396P)
T10 construct: phosphorylated
From the text: as §1

[6] = molecular target: T11, JAK1(JH1domain-catalytic) (Homo sapiens, UniProt P23458)
T11 construct: JH1domain-catalytic
From the text: as §1

MELK = MELK (Homo sapiens, UniProt Q14680)
From the text: as §1

YSK4 = molecular target: T12, YSK4 (Homo sapiens, UniProt Q56UN5)
T12 construct: gene MAP3K19
From the text: as §1

Sequence of MELK (Q14680 whole entry): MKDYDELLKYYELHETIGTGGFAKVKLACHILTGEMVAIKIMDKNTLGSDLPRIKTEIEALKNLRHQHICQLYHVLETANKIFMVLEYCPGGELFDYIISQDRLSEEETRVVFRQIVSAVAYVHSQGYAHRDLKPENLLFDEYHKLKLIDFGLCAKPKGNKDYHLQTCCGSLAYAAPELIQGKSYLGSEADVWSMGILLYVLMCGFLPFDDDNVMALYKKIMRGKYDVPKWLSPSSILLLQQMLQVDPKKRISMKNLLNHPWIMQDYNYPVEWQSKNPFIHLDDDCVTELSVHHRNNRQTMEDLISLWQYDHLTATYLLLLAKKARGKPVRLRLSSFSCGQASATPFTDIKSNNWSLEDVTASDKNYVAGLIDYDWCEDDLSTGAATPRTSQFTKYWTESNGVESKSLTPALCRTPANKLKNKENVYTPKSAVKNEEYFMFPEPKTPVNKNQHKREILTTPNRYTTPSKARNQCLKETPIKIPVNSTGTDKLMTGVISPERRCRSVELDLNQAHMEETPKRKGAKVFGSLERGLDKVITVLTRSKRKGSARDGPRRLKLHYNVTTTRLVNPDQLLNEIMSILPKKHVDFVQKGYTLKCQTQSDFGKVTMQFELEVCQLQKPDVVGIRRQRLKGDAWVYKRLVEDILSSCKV
Sequence of MAP4K5 (Q9Y4K4 whole entry): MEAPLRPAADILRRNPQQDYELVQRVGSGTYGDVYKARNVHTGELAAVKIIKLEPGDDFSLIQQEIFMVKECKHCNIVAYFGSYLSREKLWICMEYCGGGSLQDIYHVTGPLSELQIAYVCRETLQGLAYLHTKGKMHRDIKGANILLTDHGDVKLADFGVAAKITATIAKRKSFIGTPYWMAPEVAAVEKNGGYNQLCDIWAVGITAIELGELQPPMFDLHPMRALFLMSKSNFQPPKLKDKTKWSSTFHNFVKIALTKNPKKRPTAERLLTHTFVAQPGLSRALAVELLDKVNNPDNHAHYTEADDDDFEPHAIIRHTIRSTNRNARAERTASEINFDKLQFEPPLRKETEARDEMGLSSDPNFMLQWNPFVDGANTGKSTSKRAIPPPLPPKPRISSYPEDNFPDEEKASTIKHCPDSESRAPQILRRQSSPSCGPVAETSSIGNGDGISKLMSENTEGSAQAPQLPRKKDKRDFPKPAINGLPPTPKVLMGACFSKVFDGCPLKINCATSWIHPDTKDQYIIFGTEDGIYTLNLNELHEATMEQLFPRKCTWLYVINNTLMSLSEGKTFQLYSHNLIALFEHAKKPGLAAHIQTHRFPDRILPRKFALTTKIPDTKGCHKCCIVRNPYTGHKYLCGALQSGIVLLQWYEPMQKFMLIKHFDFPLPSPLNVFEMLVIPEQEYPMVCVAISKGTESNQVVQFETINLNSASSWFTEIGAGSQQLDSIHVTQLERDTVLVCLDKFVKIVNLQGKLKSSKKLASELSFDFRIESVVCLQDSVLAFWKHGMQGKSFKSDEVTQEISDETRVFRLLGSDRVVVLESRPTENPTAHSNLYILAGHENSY
T3 sequence (Q16620 whole entry): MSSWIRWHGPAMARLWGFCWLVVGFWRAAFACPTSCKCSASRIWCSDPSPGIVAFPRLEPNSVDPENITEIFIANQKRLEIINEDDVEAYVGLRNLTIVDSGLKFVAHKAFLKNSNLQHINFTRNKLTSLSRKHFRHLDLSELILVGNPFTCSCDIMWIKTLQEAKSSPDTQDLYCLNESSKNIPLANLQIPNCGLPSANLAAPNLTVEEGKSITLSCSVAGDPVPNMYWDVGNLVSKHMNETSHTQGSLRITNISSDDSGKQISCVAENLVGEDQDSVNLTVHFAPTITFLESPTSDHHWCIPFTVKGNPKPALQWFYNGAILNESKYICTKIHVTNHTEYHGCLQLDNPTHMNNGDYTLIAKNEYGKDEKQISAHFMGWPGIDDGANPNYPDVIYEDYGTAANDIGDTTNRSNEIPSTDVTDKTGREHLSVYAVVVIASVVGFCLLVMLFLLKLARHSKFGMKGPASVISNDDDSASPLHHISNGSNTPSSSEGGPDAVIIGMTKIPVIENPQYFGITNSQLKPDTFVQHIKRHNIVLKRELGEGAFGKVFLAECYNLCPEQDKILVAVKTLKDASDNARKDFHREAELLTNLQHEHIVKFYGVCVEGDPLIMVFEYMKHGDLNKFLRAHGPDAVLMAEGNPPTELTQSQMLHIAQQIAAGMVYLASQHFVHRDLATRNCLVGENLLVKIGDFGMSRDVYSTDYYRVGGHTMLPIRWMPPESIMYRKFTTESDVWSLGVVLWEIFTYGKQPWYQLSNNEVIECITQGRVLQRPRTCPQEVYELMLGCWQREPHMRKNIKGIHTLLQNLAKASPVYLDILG
T2 sequence (Q9UBF8 whole entry): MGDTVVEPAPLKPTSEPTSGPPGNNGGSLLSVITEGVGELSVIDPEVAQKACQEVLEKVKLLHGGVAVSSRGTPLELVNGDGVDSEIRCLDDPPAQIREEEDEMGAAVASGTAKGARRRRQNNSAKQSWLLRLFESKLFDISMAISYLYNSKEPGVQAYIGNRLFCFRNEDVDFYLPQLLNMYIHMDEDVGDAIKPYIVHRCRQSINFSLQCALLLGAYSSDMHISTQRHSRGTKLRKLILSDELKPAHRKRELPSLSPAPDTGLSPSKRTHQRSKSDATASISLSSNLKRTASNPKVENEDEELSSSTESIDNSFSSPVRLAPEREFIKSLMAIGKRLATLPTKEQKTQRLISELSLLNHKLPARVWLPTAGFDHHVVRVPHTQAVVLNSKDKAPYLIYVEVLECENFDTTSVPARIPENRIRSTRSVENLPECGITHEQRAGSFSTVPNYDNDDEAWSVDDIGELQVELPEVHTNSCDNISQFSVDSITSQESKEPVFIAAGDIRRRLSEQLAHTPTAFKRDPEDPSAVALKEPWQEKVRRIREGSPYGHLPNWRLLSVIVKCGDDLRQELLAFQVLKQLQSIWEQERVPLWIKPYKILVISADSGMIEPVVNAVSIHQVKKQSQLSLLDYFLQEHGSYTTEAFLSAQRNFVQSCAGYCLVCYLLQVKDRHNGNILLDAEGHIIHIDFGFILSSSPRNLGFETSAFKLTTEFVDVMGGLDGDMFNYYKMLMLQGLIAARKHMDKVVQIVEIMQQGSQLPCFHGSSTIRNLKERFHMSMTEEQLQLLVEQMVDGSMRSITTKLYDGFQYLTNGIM
Sequence of TSSK3 (Q96PN8 whole entry): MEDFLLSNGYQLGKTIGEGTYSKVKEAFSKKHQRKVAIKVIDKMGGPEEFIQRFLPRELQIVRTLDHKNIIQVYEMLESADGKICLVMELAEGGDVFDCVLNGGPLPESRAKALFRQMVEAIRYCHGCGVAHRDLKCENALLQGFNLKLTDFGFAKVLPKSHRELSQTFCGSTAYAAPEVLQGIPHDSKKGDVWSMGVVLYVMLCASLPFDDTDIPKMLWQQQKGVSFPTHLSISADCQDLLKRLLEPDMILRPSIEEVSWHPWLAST
T8 sequence (Q9UEE5 whole entry): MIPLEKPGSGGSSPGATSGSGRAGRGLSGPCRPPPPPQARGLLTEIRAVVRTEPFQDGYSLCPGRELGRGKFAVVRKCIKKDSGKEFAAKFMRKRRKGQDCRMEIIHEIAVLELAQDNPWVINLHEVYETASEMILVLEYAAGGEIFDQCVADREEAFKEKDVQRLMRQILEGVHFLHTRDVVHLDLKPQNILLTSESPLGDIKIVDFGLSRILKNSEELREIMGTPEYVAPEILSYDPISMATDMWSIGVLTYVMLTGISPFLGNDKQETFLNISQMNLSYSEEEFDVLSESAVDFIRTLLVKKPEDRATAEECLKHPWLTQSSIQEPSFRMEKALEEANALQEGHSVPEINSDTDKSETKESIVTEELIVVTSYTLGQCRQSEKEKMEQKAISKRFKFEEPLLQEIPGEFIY
Sequence of TGFBR1 (P36897 whole entry): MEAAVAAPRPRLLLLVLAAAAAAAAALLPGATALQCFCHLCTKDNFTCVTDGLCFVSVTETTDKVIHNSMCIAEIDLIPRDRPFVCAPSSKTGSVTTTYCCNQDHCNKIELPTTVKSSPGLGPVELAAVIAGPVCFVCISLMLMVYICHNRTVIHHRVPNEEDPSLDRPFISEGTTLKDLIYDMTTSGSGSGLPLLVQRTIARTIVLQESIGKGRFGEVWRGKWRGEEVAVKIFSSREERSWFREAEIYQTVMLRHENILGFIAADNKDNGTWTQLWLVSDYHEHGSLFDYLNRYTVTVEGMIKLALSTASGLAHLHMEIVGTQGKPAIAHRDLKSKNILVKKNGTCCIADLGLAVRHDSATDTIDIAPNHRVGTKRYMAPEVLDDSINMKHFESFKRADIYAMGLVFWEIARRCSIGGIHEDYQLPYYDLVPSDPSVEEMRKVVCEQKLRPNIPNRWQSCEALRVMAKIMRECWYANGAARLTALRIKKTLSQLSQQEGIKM
Sequence of PAK2 (Q13177 whole entry): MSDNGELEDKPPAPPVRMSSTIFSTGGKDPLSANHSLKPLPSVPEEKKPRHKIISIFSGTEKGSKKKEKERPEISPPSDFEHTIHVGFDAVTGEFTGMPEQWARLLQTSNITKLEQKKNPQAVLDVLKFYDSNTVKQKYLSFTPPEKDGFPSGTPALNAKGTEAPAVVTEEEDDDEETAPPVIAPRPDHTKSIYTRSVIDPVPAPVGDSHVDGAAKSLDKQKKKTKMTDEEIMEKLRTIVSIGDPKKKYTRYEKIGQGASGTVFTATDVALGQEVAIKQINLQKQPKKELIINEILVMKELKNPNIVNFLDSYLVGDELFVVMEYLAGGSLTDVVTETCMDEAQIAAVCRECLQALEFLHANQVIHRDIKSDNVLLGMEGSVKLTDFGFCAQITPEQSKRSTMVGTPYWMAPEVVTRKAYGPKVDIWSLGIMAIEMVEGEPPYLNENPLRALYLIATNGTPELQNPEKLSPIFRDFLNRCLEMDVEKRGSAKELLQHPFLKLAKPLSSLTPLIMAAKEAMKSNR

Cn1c(=O)[nH]c2ccc(-c3cccc(C(=O)NC4CCn5ccnc5C4)c3)cc21 (centres unmarked) [Z36-MP5]
remaining binding at 1 µM (EPHA2): 88%
remaining binding at 1 µM (TSSK3): 42%
remaining binding at 1 µM (PAK2): 63%
remaining binding at 1 µM (MEK2): 58%
remaining binding at 1 µM (PIK4CB): 100%
remaining binding at 1 µM (TRKB): 52%
remaining binding at 1 µM (GCN2(Kin.Dom.2,S808G)): 94%
remaining binding at 1 µM (FLT3(ITD,D835V)): 56%
remaining binding at 1 µM [1]: 63%
remaining binding at 1 µM [2]: 74%
remaining binding at 1 µM (TGFBR1): 90%
remaining binding at 1 µM (NLK): 59%
remaining binding at 1 µM (PIM1): 90%
remaining binding at 1 µM (MAP4K5): 39%
remaining binding at 1 µM (CAMK1G): 99%
remaining binding at 1 µM [3]: 75%
remaining binding at 1 µM (DRAK1): 96%
remaining binding at 1 µM (LKB1): 97%
remaining binding at 1 µM [4]: 51%
remaining binding at 1 µM [5]: 82%
remaining binding at 1 µM [6]: 96%
remaining binding at 1 µM (MELK): 85%
remaining binding at 1 µM (YSK4): 85%
